From patent US9796674B2, “Benzyl urea derivatives for activating TGF-beta signaling” (THE BOARD OF TRUSTEES OF THE LELAND STANFORD JUNIOR …, priority 2013, dated 2017)
Entries after “also recorded” stand apart in the source; their conditions may differ.

Legend:
[1] = PAMPA-BBB permeability assay; assay type: in vitro ADME
Method: Permeability Assays: PAMPA screens, both for absorption from the gut and through blood brain barrier, were used as a first tier screen for this program. SRI-011381 was evaluated in the double sink assay format and the sum of the permeability coefficients at three pH values (7.4, 6.2, 5.0) was calculated (Pe) to be 781×10^−6 cm/s, which is consistent with an orally available compound.
Permeability PAMPA: The PAMPA assay was used to predict oral bioavailability of compounds. The PAMPA determines the permeability of compounds across a biological membrane using a synthetic lipid membrane and detection by UV absorbance. […] The PAMPA-BBB assay was performed, to predict permeability to the blood brain barrier, as an aqueous assay and as a co-solvent assay. In this assay the composition of the lipid membrane included brain-derived lipids, mimicking the BBB membrane.

[2] = tested on: mouse J774A.1 macrophages; test: Fibrillar Aβ clearance by J774A.1 macrophages; assay type: cell-based; details: 24 h, 2, 5, or 10 μM
Method: SRI-011381 promotes Aβ clearance in cell culture: TGF-β1 promotes Aβ clearance in a microglia cell line. To test whether SRI-011381 has similar properties, mouse J774A.1 macrophages and human macrophages differentiated from THP-1 monocytic cell lines were treated with fibrillar Aβ in the absence or presence of compound (2, 5, or 10 μM) for 24 h. Conditioned medium was harvested and the remaining Aβ that was not phagocytosed by macrophages was quantified by Aβ ELISA.
(§1) FIGS. 4A and 4B present data from experiments in which human macrophages differentiated from THP-1 monocytic cell lines and mouse J774A.1 macrophages were incubated with fibrillar Aβ in the absence or presence of compound (2 or 5 μM) for 24 h. Conditioned medium was harvested and the remaining Aβ was quantified by Aβ ELISA. The collected medium (FIGS. 4C-4D) was added to N2A-APP-Swe cells (mouse Neuro-2A neuroblastoma cells stably expressing Swedish APP695) and incubated for 24 h. Neurotoxicity was quantified by an MTS Assay.
Mouse J774A.1 macrophages and human macrophages that were differentiated from THP-1 monocytic cell lines were treated with fibrillar Aβ42 in the absence or presence of SRI-011382 or its derivative compounds (2, 5, or 10 μM) for 24 h. Conditioned medium was harvested and the remaining Aβ42 that was not phagocytosed by macrophages was quantified by Aβ42 ELISA kit (Invitrogen). […]

[3] = Cytotoxicity in primary rat hepatocytes; assay type: cell-based; details: rat
Method: In Vitro Cytotoxicity: The cytotoxicity of SRI-011381 was determined in primary rat hepatocytes and in VERO cells.
Rat hepatocytes were isolated by collagenase perfusion and allowed to form a monolayer overnight. The test compounds were added to the cells in 5 concentrations up to 250 μM. Cells were incubated with the test article for 20 h and then toxicity determined by the MTT cytotoxicity screen. Toxicity was evaluated against the vehicle control (DMSO) and a positive control, amitriptylin, was included with each experiment.

[4] = tested on: APP751Lon,Swe transgenic mice; test: Efficacy in APP751Lon,Swe transgenic mouse model; assay type: in vivo; details: for Y-maze working memory (spontaneous alternations): po 3 times per week
Source text: Transgenic mouse models over-producing human APP-containing mutations found in families with autosomal dominant AD reproduce important aspects of AD, including amyloid plaques, neurodegeneration, and cognitive deficits. Transgenic mice which overexpress human APP751^V717I, K670M/N671L (aka London and Swedish mutations) in neurons under control of a Thy1.2 promoter, specifically Line 41 generated according to Rockenstein et al., (2001) J. Neurosci. Res. 66: 573-582, incorporated herein by reference in its entirety, develop amyloid pathology, neurodegeneration, and cognitive deficits (Rockenstein et al. 2001). These mice (short APP751^Lon,Swe) have been studied by multiple laboratories (Pickford et al. (2008) J. Clin. Invest. doi:10.1172/JCI33585; Knowles et al., (2009) J. Neuroscience 29: 10627-10637) and have been used as a model for drug development.
Compound SRI-011381 was dissolved in a vehicle containing 15% solutol and 85% water. The formulated compound was administered orally to APP751^Lon,Swe transgenic mice or littermate non-transgenic controls (male, 6.5-7.5 months of age) at 0 (vehicle only), 10, 30 mg/kg of body weight 3 times per week for 10 weeks (n=7-11 mice per group). Behavioral studies started at this point. Oral gavage of the compound continued throughout the course of the studies until the mice were sacrificed 17 weeks after treatment had been initiated (thus mice were treated for roughly 4 months total before they were sacrificed). Plasma samples were collected for future proteomic assays. One hemibrain was fixed in 4% PFA for 48 h and kept in 2% PFA at 4° C. for neuropathologcial analysis. The other hemibrain was snap frozen. Both the serum and frozen brain samples were placed into −80° C. freezer for long-term storage.
To determine the effects of SRI-011381 (381) treatment on AD-like pathology brains from APP751^Lon,Swe transgenic and non-transgenic littermate control mice treated with vehicle, 10 mg/kg, or 30 mg/kg of compound were sectioned into 40 μm free-floating sections with a vibratome. Brain sections were stained with antibodies against Aβ, phosphorylated tau (PHF1), calbindin, microtubule associated protein2 (MAP2), synaptophysin (SY38), NeuN, and Iba1. In addition, hippocampus and neocortex from one hemibrain from APP751^Lon,Swe mice were homogenized with guanidine, and levels of Aβ1-42 and Aƒβ1-x were measured by ELISA.

[5] = tested on: N2A-APP-Swe cells; test: Neurotoxicity of macrophage-conditioned medium (MTS assay); assay type: cell-based, mouse
Method: as §1
Mouse J774A.1 macrophages and human macrophages that were differentiated from THP-1 monocytic cell lines were treated with fibrillar Aβ42 in the absence or presence of SRI-011382 or its derivative compounds (2, 5, or 10 μM) for 24 h. Conditioned medium was harvested and the remaining Aβ42 that was not phagocytosed by macrophages was quantified by Aβ42 ELISA kit (Invitrogen). Data was normalized to control medium containing the input amount of Aβ42. Neurotoxicity induced by fibrillar Aβ42 in the conditioned medium was then assessed by incubating Neuro-2a neuroblastoma cells with conditioned medium for 24 h followed by MTS-based viability assay. Data was normalized to control cells without fibrillar Aβ42 treatment.

O=C(NC1CCCCC1)N(Cc1ccccc1)CC1CCNCC1 [SRI-011381, 1-Benzyl-3-cyclohexyl-1-(piperidin-4-ylmethyl)urea]
PAMPA-BBB Pe [1]: 4.2±2.2 ×10^−6 cm/s | Papp ([1]; PAMPA, read-out: PAMPA-BBB Pe): 4.2 ± 2.2 ×10⁻⁶ cm/s | fibrillar Aβ clearance [2]: promoted fibrillar Aβ clearance; also recorded: promoted fibrillar Aβ42 clearance | fibrillar Aβ clearance ([2]; listed as SRI-11381): promote fibrillar Aβ42 clearance | CC50 at 20 h [3]: > 100 µM | fear conditioning: context memory ([4]; 10 mg/kg): significantly improved | rescue of working memory deficit (Y-maze) ([4]; 10 mg/kg po 3 times per week, 10 weeks): > 50% | fear conditioning: cued memory to the tone ([4]; 10 or 30 mg/kg): no significant differences | fear conditioning: learning of the tone response (freezing, tone 4) ([4]; 10 or 30 mg/kg): completely absent | Aβ immunoreactivity in hippocampus and cortex ([4]; 10 or 30 mg/kg, about 4 months): trend was seen towards lower levels | Aβ levels by ELISA in hippocampus and cortex ([4]; 10 or 30 mg/kg, about 4 months): non-significant trends towards lower Aβ levels | increase in expression of PHF1 ([4]; 10 or 30 mg/kg, about 4 months): almost completely absent | level of Iba1 ([4]; 10 or 30 mg/kg, about 4 months): did not significantly change | levels of calbindin, synaptophysin, MAP-2 and NeuN ([4]; 10 or 30 mg/kg, about 4 months): significantly higher levels of these neuronal markers | fear conditioning: cued memory to the tone ([4]; 10 or 30 mg/kg, listed as 381): No freezing difference | fear conditioning: learning of the tone response (freezing, tone 4) ([4]; 10 or 30 mg/kg, listed as 381): significant increase in freezing | rescue of contextual memory deficit ([4]; oral): greater than 50% | Y-maze working memory (spontaneous alternations) ([4]; 10 weeks): not significantly impaired compared with littermate non-transgenic controls | Y-maze working memory (spontaneous alternations) ([4]; 10 weeks, listed as 381): improved | neurodegeneration ([4]; two dose levels, 4-month-period of treatment): marked amelioration of neurodegeneration | fibrillar Aβ42-induced neurotoxicity ([5]; medium conditioned by J774A.1 macrophages): protect human neuronal cells from fibrillar Aβ42-induced neurotoxicity | fibrillar Aβ42-induced neurotoxicity ([5]; medium conditioned by THP-1 macrophages): protect human neuronal cells from fibrillar Aβ42-induced neurotoxicity
